According to BindingDB's records for doi:10.1016/j.bmcl.2005.03.031 (Dartmouth College, 2005):

target: Nitric oxide synthase, inducible (Homo sapiens, UniProt P35228); assay: Inhibition of inducible nitric oxide synthase in activated macrophages
Sequence (P35228 whole entry): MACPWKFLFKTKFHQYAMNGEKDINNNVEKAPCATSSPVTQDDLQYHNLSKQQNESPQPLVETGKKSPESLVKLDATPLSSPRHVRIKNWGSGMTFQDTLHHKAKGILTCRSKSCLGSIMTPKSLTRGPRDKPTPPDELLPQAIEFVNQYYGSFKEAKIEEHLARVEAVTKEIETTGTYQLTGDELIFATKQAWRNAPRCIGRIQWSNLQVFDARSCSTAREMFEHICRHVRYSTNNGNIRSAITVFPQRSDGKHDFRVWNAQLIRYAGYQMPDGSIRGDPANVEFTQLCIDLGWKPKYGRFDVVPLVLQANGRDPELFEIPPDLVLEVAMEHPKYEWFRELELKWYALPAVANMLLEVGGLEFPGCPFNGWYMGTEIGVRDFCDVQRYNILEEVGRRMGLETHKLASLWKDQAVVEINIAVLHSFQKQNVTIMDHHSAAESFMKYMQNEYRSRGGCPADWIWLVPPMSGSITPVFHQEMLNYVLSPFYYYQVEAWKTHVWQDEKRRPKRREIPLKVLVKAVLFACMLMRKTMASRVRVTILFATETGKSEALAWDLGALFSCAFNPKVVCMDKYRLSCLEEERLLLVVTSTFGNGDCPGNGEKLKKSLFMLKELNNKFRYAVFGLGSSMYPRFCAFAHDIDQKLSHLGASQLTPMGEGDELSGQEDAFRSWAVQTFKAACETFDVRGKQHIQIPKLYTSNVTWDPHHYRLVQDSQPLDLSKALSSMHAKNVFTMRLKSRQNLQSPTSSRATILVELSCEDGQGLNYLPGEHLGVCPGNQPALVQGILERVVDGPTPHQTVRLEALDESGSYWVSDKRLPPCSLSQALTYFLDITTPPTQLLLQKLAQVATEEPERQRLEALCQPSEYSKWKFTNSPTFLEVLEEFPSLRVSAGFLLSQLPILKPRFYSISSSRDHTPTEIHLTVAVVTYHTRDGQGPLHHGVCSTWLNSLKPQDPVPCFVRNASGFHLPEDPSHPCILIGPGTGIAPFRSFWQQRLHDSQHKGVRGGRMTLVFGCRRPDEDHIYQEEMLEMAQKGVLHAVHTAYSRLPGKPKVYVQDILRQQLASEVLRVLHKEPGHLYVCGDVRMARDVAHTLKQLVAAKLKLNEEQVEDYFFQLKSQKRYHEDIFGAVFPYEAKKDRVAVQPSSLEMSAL

Compared with `CC1(C)CC[C@]2(C(=O)O)CC[C@]3(C)C(C(=O)CC4[C@@]5(C)C=CC(=O)C(C)(C)C5CC[C@]43C)C2C1` (stereo partly drawn) [(4aS,6aR,6bR,12aR)-2,2,6a,6b,9,9,12a-Heptamethyl-10,14-dioxo-1,3,4,5,6,6a,6b,7,8,8a,9,10,12a,12b,13,14,14a,14b-octadecahydro-2H-picene-4a-carboxylic acid], `CC1(C)CC[C@]2(C(=O)O)CC[C@]3(C)C(=CCC4[C@@]5(C)C=CC(=O)C(C)(C)C5CC[C@]43C)C2C1` (stereo partly drawn) [(4aS,6aS,6bR,12aR)-2,2,6a,6b,9,9,12a-Heptamethyl-10-oxo-1,3,4,5,6,6a,6b,7,8,8a,9,10,12a,12b,13,14b-hexadecahydro-2H-picene-4a-carboxylic acid] is 1.7-fold higher in IC50: 3.3 µM for the first, 5.6 µM for the second. The first is the more potent here.

Compared with `CC1(C)CC[C@]2(C(=O)O)CC[C@]3(C)C(=CCC4[C@@]5(C)C=C(C#N)C(=O)C(C)(C)C5CC[C@]43C)C2C1` (stereo partly drawn) [(4aS,6aS,6bR,12aR)-11-Cyano-2,2,6a,6b,9,9,12a-heptamethyl-10-oxo-1,3,4,5,6,6a,6b,7,8,8a,9,10,12a,12b,13,14b-hexadecahydro-2H-picene-4a-carboxylic acid], `CC1(C)CC[C@]2(C(=O)O)CC[C@]3(C)C(=CC(=O)C4[C@@]5(C)C=C(C#N)C(=O)C(C)(C)C5CC[C@]43C)C2C1` (stereo partly drawn) [(4aS,6aS,6bR,12aS)-11-Cyano-2,2,6a,6b,9,9,12a-heptamethyl-10,13-dioxo-1,3,4,5,6,6a,6b,7,8,8a,9,10,12a,12b,13,14b-hexadecahydro-2H-picene-4a-carboxylic acid] is 15-fold lower in IC50: 0.6 µM for the first, 0.04 µM for the second. The second is the more potent here.

Compared with `CC1(C)CC[C@]2(C(=O)O)CC[C@]3(C)C(=CC[C@@H]4[C@@]5(C)CC[C@H](O)C(C)(C)[C@@H]5CC[C@]43C)[C@@H]2C1` [Oleanolic acid (OA)(Compound 1)], `CC1(C)CC[C@]2(C(=O)O)CC[C@]3(C)C(=CC[C@@H]4[C@@]5(C)CCC(=O)C(C)(C)[C@@H]5CC[C@]43C)[C@@H]2C1` [Oleanonic Acid] is lower in IC50: over 40 µM for the first, 37 µM for the second.
